Target: recombinant human SAE enzyme (Homo sapiens (Human), UniProt Q9UBT2)
Assay: SAE HTRF enzyme assay
Format: biochemical
Settings: for Percent Inhibition: Concentration 0.111 μM; for IC50: class symbols A/B/C
Method in brief: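 0.11 nM SAE incubated with 0.5 μM ATP, 0.01 μM Ubc9-GST and 0.125 μM Sumo-Flag in HEPES pH 7.5, MgCl2, GSH, BSA, ±inhibitor, 105 min at 24° C. EDTA stop; Eu-cryptate anti-Flag/XL-APC anti-GST HTRF read after 2 h. Values given as single-concentration % inhibition or IC50.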

Sequence of recombinant human SAE enzyme (Q9UBT2 whole entry): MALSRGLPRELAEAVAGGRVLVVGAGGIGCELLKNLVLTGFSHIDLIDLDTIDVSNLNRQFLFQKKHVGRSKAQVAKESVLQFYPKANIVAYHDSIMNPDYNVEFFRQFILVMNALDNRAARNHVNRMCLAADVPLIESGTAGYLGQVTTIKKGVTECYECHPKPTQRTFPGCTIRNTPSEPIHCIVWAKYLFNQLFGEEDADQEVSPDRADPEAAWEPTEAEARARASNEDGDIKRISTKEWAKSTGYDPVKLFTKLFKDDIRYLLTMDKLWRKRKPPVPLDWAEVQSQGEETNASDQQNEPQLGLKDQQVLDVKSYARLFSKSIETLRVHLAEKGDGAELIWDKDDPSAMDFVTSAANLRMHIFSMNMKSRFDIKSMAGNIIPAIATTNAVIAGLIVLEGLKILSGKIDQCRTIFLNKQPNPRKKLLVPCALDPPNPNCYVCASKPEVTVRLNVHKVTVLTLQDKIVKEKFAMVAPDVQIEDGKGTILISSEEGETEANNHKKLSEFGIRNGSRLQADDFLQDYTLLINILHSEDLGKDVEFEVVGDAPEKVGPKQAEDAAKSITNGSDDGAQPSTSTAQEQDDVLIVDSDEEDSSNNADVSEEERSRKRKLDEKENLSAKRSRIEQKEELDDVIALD
Sequence of recombinant human SAE enzyme (Q9UBE0 whole entry partner): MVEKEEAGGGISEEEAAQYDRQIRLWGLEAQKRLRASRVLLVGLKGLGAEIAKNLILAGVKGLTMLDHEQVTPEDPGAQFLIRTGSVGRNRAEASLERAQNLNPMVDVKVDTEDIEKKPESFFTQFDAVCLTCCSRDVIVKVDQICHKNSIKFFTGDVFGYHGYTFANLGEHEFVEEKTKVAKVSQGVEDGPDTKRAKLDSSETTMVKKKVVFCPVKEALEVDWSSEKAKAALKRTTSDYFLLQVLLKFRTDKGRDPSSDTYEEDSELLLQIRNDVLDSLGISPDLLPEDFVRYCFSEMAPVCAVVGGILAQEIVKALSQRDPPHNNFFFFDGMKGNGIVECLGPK

SMILES | Percent Inhibition | IC50 [nM]
C=C(C)[C@@H](O)c1coc(C(=O)c2cncnc2N[C@@H]2C[C@H](COS(N)(=O)=O)[C@@H](O)C2)c1.C=C(C)[C@H](O)c1coc(C(=O)c2cncnc2N[C@@H]2C[C@H](COS(N)(=O)=O)[C@@H](O)C2)c1 (mixture of isomers) [I-197, {(1R,2S,4R)-2-Hydroxy-4-[(5-{4-[(1S)-1-hydroxy-2-methylprop-2-en-1-yl]-2-furoyl}pyrimidin-4-yl)amino]cyclopentyl)methyl sulfamate and {(1R,2S,4R)-2-Hydroxy-4-[(5-{4-[(1R)-1-hydroxy-2-methylprop-2-en-1-yl]-2-furoyl}pyrimidin-4-yl)amino]cyclopentyl}methyl sulfamate] | 69 | 10 to 100
NS(=O)(=O)OC[C@H]1C[C@@H](Nc2ncncc2C(=O)c2cc([C@@]3(c4cccc(Cl)c4)CCCS3)cs2)C[C@@H]1O (mixture of isomers) [I-209, {(1R,2S,4R)-4-[(5-{[(2S)-2-(3-chlorophenyl)-2,3,4,5-tetrahydro-2,3′-bithiophen-5′-yl]carbonyl}pyrimidin-4-yl)amino]-2-hydroxycyclopentyl}methyl sulfamate and {(1R,2S,4R)-4-[(5-{[(2R)-2-(3-chlorophenyl)-2,3,4,5-tetrahydro-2,3′-bithiophen-5′-yl]carbonyl}pyrimidin-4-yl)amino]-2-hydroxycyclopentyl}methyl sulfamate] | 45 | 100 to 1000
C[C@@H]1CCCN(Cc2csc(C(=O)c3cncnc3N[C@@H]3C[C@H](COS(N)(=O)=O)[C@@H](O)C3)c2)C1 (mixture of isomers) [I-225, [(1R,2S,4R)-2-hydroxy-4-({5-[(4-{[(3R)-3-methylpiperidin-1-yl]methyl}-2-thienyl)carbonyl]pyrimidin-4-yl}amino)cyclopentyl]methyl sulfamate and [(1R,2S,4R)-2-hydroxy-4-({5-[(4-{[(3S)-3-methylpiperidin-1-yl]methyl}-2-thienyl)carbonyl]pyrimidin-4-yl}amino)cyclopentyl]methyl sulfamate] | 33 | 100 to 1000
C[C@H](O)c1cc(C(=O)c2cncnc2N[C@@H]2C[C@H](COS(N)(=O)=O)[C@@H](O)C2)sc1Cl (mixture of isomers) [I-226, [(1R,2S,4R)-4-{[5-({5-Chloro-4-[(1S)-1-hydroxyethyl]-2-thienyl}carbonyl)pyrimidin-4-yl]amino}-2-hydroxycyclopentyl]methyl sulfamate and [(1R,2S,4R)-4-{[5-({5-Chloro-4-[(1R)-1-hydroxyethyl]-2-thienyl}carbonyl)pyrimidin-4-yl]amino}-2-hydroxycyclopentyl]methyl sulfamate] | 33 | 100 to 1000
CN1CCC[C@]1(c1cccc(Cl)c1)c1csc(C(=O)c2cncnc2N[C@@H]2C[C@H](COS(N)(=O)=O)[C@@H](O)C2)c1 (mixture of isomers) [I-227, [(1R,2S,4R)-4-{[5-({4-[(2S)-2-(3-chlorophenyl)-1-methylpyrrolidin-2-yl]-2-thienyl}carbonyl)pyrimidin-4-yl]amino}-2-hydroxycyclopentyl]methyl sulfamate and [(1R,2S,4R)-4-{[5-({4-[(2R)-2-(3-chlorophenyl)-1-methylpyrrolidin-2-yl]-2-thienyl}carbonyl)pyrimidin-4-yl]amino}-2-hydroxycyclopentyl]methyl sulfamate] | 23 | 100 to 1000
NS(=O)(=O)OC[C@H]1C[C@@H](Nc2ncncc2C(=O)c2cc([C@@]3(C4CC4)CCCO3)cs2)C[C@@H]1O (mixture of isomers) [I-238, [(1R,2S,4R)-4-{[5-({4-[(2S)-2-cyclopropyltetrahydrofuran-2-yl]-2-thienyl}carbonyl)pyrimidin-4-yl]amino}-2-hydroxycyclopentyl]methyl sulfamate and [(1R,2S,4R)-4-{[5-({4-[(2R)-2-cyclopropyltetrahydrofuran-2-yl]-2-thienyl}carbonyl)pyrimidin-4-yl]amino}-2-hydroxycyclopentyl]methyl sulfamate] | 25 | 100 to 1000
NS(=O)(=O)OC[C@H]1C[C@@H](Nc2ncncc2C(=O)c2cc([C@@H]3NCCc4ccc(Cl)nc43)c(Cl)s2)C[C@@H]1O.NS(=O)(=O)OC[C@H]1C[C@@H](Nc2ncncc2C(=O)c2cc([C@H]3NCCc4ccc(Cl)nc43)c(Cl)s2)C[C@@H]1O (mixture of isomers) [I-253, [(1R,2S,4R)-4-{[5-({5-chloro-4-[(8S)-2-chloro-5,6,7,8-tetrahydro-1,7-naphthyridin-8-yl]-2-thienyl}carbonyl)pyrimidin-4-yl]amino}-2-hydroxycyclopentyl]methyl sulfamate and [(1R,2S,4R)-4-{[5-({5-chloro-4-[(8R)-2-chloro-5,6,7,8-tetrahydro-1,7-naphthyridin-8-yl]-2-thienyl}carbonyl)pyrimidin-4-yl]amino}-2-hydroxycyclopentyl]methyl sulfamate] | 100 | < 10
NS(=O)(=O)OC[C@H]1C[C@@H](Nc2ncncc2C(=O)c2cc([C@@H]3OCCc4ccccc43)cs2)C[C@@H]1O.NS(=O)(=O)OC[C@H]1C[C@@H](Nc2ncncc2C(=O)c2cc([C@H]3OCCc4ccccc43)cs2)C[C@@H]1O (mixture of isomers) [I-254, [(1R,2S,4R)-4-{[5-({4-[(1R)-3,4-dihydro-1H-isochromen-1-yl]-2-thienyl}carbonyl)pyrimidin-4-yl]amino}-2-hydroxycyclopentyl]methyl sulfamate and [(1R,2S,4R)-4-{[5-({4-[(1S)-3,4-dihydro-1H-isochromen-1-yl]-2-thienyl}carbonyl)pyrimidin-4-yl]amino}-2-hydroxycyclopentyl]methyl sulfamate] | 99 | < 10
Cc1sc(C(=O)c2cncnc2NC2CC(O)C(COS(N)(=O)=O)C2)cc1C1OCCc2ccccc21 (mixture of isomers) [I-256, [(1R,2S,4R)-4-{[5-({4-[(1R)-3,4-dihydro-1H-isochromen-1-yl]-5-methyl-2-thienyl}carbonyl)pyrimidin-4-yl]amino}-2-hydroxycyclopentyl]methyl sulfamate and [(1R,2S,4R)-4-{[5-({4-[(1S)-3,4-dihydro-1H-isochromen-1-yl]-5-methyl-2-thienyl}carbonyl)pyrimidin-4-yl]amino}-2-hydroxycyclopentyl]methyl sulfamate] | 100 | < 10
Cc1sc(C(=O)c2cncnc2N[C@@H]2C[C@H](COS(N)(=O)=O)[C@@H](O)C2)cc1[C@@H]1OCCc2ccc(C(F)(F)F)cc21 (mixture of isomers) [I-258, [(1R,2S,4R)-2-hydroxy-4-{[5-({5-methyl-4-[(1R)-7-(trifluoromethyl)-3,4-dihydro-1H-isochromen-1-yl]-2-thienyl}carbonyl)pyrimidin-4-yl]amino}cyclopentyl]methyl sulfamate and [(1R,2S,4R)-2-hydroxy-4-{[5-({5-methyl-4-[(1S)-7-(trifluoromethyl)-3,4-dihydro-1H-isochromen-1-yl]-2-thienyl}carbonyl)pyrimidin-4-yl]amino}cyclopentyl]methyl sulfamate] | 100 | < 10
NS(=O)(=O)OC[C@H]1C[C@@H](Nc2ncncc2C(=O)c2cc([C@@H]3NCCc4ccc(Br)cc43)c(Cl)s2)[C@H](O)[C@@H]1O (mixture of isomers) [I-259, [(1R,2R,3S,4R)-4-{[5-({4-[(1R)-7-bromo-1,2,3,4-tetrahydroisoquinolin-1-yl]-5-chloro-2-thienyl}carbonyl)pyrimidin-4-yl]amino}-2,3-dihydroxycyclopentyl]methyl sulfamate and [(1R,2R,3S,4R)-4-{[5-({4-[(1S)-7-bromo-1,2,3,4-tetrahydroisoquinolin-1-yl]-5-chloro-2-thienyl}carbonyl)pyrimidin-4-yl]amino}-2,3-dihydroxycyclopentyl]methyl sulfamate] | 99 | < 10
Cc1sc(C(=O)c2cncnc2N[C@@H]2C[C@H](COS(N)(=O)=O)[C@@H](O)C2)cc1[C@H]1OCC(F)(F)c2ccc(Cl)nc21 (mixture of isomers) [I-260, [(1R,2S,4R)-4-{[5-({4-[(8R)-2-chloro-5,5-difluoro-5,8-dihydro-6H-pyrano[3,4-b]pyridin-8-yl]-5-methyl-2-thienyl}carbonyl)pyrimidin-4-yl]amino}-2-hydroxycyclopentyl]methyl sulfamate and [(1R,2S,4R)-4-{[5-({4-[(8S)-2-chloro-5,5-difluoro-5,8-dihydro-6H-pyrano[3,4-b]pyridin-8-yl]-5-methyl-2-thienyl}carbonyl)pyrimidin-4-yl]amino}-2-hydroxycyclopentyl]methyl sulfamate] | 98 | < 10
NS(=O)(=O)OC[C@H]1C[C@@H](Nc2ncncc2C(=O)c2cc([C@H]3OCCc4ccc(Cl)cc43)cs2)C[C@@H]1O (mixture of isomers) [I-261, [(1R,2S,4R)-4-{[5-({4-[(1R)-7-chloro-3,4-dihydro-1H-isochromen-1-yl]-2-thienyl}carbonyl)pyrimidin-4-yl]amino}-2-hydroxycyclopentyl]methyl sulfamate and [(1R,2S,4R)-4-{[5-({4-[(1S)-7-chloro-3,4-dihydro-1H-isochromen-1-yl]-2-thienyl}carbonyl)pyrimidin-4-yl]amino}-2-hydroxycyclopentyl]methyl sulfamate] | 99 | < 10
NS(=O)(=O)OC[C@H]1C[C@@H](Nc2ncncc2C(=O)c2cc([C@@H]3NCc4ccc(Cl)cc43)c(Cl)s2)C[C@@H]1O (mixture of isomers) [I-262, [(1R,2S,4R)-4-{[5-({5-chloro-4-[(1R)-6-chloro-2,3-dihydro-1H-isoindol-1-yl]-2-thienyl}carbonyl)pyrimidin-4-yl]amino}-2-hydroxycyclopentyl]methyl sulfamate and [(1R,2S,4R)-4-{[5-({5-chloro-4-[(1S)-6-chloro-2,3-dihydro-1H-isoindol-1-yl]-2-thienyl}carbonyl)pyrimidin-4-yl]amino}-2-hydroxycyclopentyl]methyl sulfamate] | 100 | < 10

— patent US10780090B2, “Heteroaryl compounds useful as inhibitors of SUMO activating enzyme” (Millennium Pharmaceuticals, Inc., priority 2014, dated 2020)
